The experiment deals with recombinant DYRK1A kinase (Homo sapiens (Human), UniProt Q13627). Kind of experiment: DYRK1A kinase assay (Ser/Thr 18 peptide Z-lyte FRET assay). It counts as biochemical. Particulars: DYRK1A kinase activity; 15 μM ATP, 1 h room temperature; method text calls the value IC50. On the procedure: Representative compounds were screened using the assay procedure for DYRK1A kinase activity as described below.
Each compound was dissolved in DMSO as a 10 mM stock and used to prepare compound source plates. Serial dilution (1:3, 11-point dose-response curves from 10 μM to 0.00016 μM) and compound transfer was performed using the ECHO 550 (Labcyte, Sunnyvale, CA) into 1536-well black-walled round bottom plates (Corning).
The DYRK1A kinase assay was run using the Ser/Thr 18 peptide Z-lyte assay kit according to manufacturer's instructions (Life Technologies—a Division of Thermo-Fisher). This is a non-radioactive assay using fluorescence resonance energy transfer (FRET) between coumarin and fluorescein to detect kinase activity which is represented as a ratio of coumarin emission/fluorescein emission.
Briefly, recombinant DYRK1A kinase, ATP and Ser/Thr peptide 18 were prepared in 1× Kinase buffer to final concentrations of 0.25 μg/mL, 15 μM, and 4 μM respectively. The mixture was allowed to incubate with the representative compounds for one hour at room temperature. All reactions were performed in duplicate. Unphosphorylated (“0% Control”) and phosphorylated (“100% control”) forms of Ser/Thr 18 served as control reactions. Additionally, an 11-point dose-response curve of Staurosporine (1 uM top) was run to serve as a positive compound control.
After incubation, Development Reagent A was diluted in Development Buffer then added to the reaction and allowed to further incubate for one hour at room temperature. The plate was read at Ex 400 Em […] to detect the coumarin signal and Ex 400 Em 520 to measure the signal (EnVision Multilabel Plate Reader, PerkinElmer).
The Emission ratio (Em) was calculated as a ratio of the coumarin (C) emission signal (at 445 nm)/Fluorescein (F) emission signal (at 520 nm). The percent phosphorylation was then calculated using the following formula: [1−((Em ratio×F100%)−C100%)/((C0%−C100%)+(Em ratio×(F100%−F0%)))]. Dose-response curves were generated, and inhibitory concentration (IC50) values were calculated using non-linear regression curve fit in the Dotmatics' Studies Software (Bishops Stortford, UK).
As usually defined, the EC50 is the midpoint of the concentration-response curve. For `Cc1cn2cc(-c3c[nH]c4nc(C5CC5)ncc34)cc(F)c2n1` [Compound 233, 2-Cyclopropyl-5-(8-fluoro-2-methylimidazo[1,2-a]pyridin-6-yl)-7H-pyrrolo [2,3-d]pyrimidine], the EC50 came out at 268 nM.

As to `Cc1cn2cc(-c3c[nH]c4nc(NC5CCC(F)(F)CC5)ncc34)cc(F)c2n1` [Compound 258, N-(4,4-Difluorocyclohexyl)-5-(8-fluoro-2-methylimidazo[1,2-a]pyridin-6-yl)-7H-pyrrolo[2,3-d]pyrimidin-2-amine], the EC50 is 45.3 nM.

`CCOc1ncc2c(-c3cc(F)c4ncc(C)n4c3)c[nH]c2n1` [Compound 293, 2-Ethoxy-5-(8-fluoro-3-methylimidazo[1,2-a]pyridin-6-yl)-7H-pyrrolo[2,3-d]pyrimidine]: the EC50 was 93.6 nM.

For the compound `Fc1cc(-c2c[nH]c3nc(C4CC4)ncc23)cn2c(C(F)F)cnc12` [Compound 359, 2-Cyclopropyl-5-(3-(difluoromethyl)-8-fluoroimidazo[1,2-a]pyridin-6-yl)-7H-pyrrolo[2,3-d]pyrimidine], the EC50 was found to be 115 nM.

Consider `OCc1cnc2c(F)cc(-c3c[nH]c4nc(C5CC5)ncc34)cn12` [Compound 363, (6-(2-Cyclopropyl-7H-pyrrolo[2,3-d]pyrimidin-5-yl)-8-fluoroimidazo[1,2-a]pyridin-3-yl)methanol], for which the concentration for a half-maximal effect (EC50) amounted to 41.6 nM.

Turning to `CN1CCC(c2cnc3c(F)cc(-c4c[nH]c5nc(C6CC6)ncc45)cn23)CC1` [Compound 403, 2-Cyclopropyl-5-(8-fluoro-3-(1-methylpiperidin-4-yl)imidazo[1,2-a]pyridin-6-yl)-7H-pyrrolo[2,3-d]pyrimidine], the EC50 is 174 nM.

Consider `C[C@H](Nc1ncc2c(-c3cnc4nccn4c3)c[nH]c2n1)C(F)(F)F` [Compound 464, (S)-5-(Imidazo[1,2-a]pyrimidin-6-yl)-N-(1,1,1-trifluoropropan-2-yl)-7H-pyrrolo[2,3-d]pyrimidin-2-amine], for which the EC50 was 9.5 nM.

In the case of `CC(C)(C)Cc1ncc2c(-c3cnc4nccn4c3)c[nH]c2n1` [Compound 490, 5-(Imidazo[1,2-a]pyrimidin-6-yl)-2-neopentyl-7H-pyrrolo[2,3-d]pyrimidine], the EC50 is 153 nM.

For `Cn1cc2cc(-c3c[nH]c4nc(NCC(C)(C)F)ncc34)ccc2n1` [Compound 492, N-(2-Fluoro-2-methylpropyl)-5-(2-methyl-2H-indazol-5-yl)-7H-pyrrolo[2,3-d]pyrimidin-2-amine], the EC50 worked out at 123 nM.

As for `Cc1nc2c(F)cc(-c3c[nH]c4nc(NCC5CN(C)C5)ncc34)cc2n1C` [Compound 493, 5-(4-Fluoro-1,2-dimethyl-1H-benzo[d]imidazol-6-yl)-N-((1-methylazetidin-3-yl)methyl)-7H-pyrrolo[2,3-d]pyrimidin-2-amine], the EC50 came to 4700 nM.

With `Cc1nc2c(F)cc(-c3c[nH]c4nc(N5CCC5)ncc34)cc2n1C(C)C` [Compound 494, 2-(Azetidin-1-yl)-5-(4-fluoro-1-isopropyl-2-methyl-1H-benzo[d]imidazol-6-yl)-7H-pyrrolo[2,3-d]pyrimidine], the EC50 was determined as 227 nM.

For the compound `Cc1nc2c(F)cc(-c3c[nH]c4nc(NCC(C)C)ncc34)cc2n1C(C)C` [Compound 506, 5-(4-Fluoro-1-isopropyl-2-methyl-1H-benzo[d]imidazol-6-yl)-N-isobutyl-7H-pyrrolo[2,3-d]pyrimidin-2-amine], the EC50 was 1.7 nM.

With `Cc1nc2c(F)cc(-c3c[nH]c4nc(NCC5(F)CCCCC5)ncc34)cc2n1C(C)C` [Compound 526, 5-(4-Fluoro-1-isopropyl-2-methyl-1H-benzo[d]imidazol-6-yl)-N-((1-fluorocyclohexyl)methyl)-7H-pyrrolo[2,3-d]pyrimidin-2-amine], the EC50 is 8.5 nM.

`Cc1nc2c(F)cc(-c3c[nH]c4nc(NCC5CCN(C)CC5)ncc34)cc2n1C(C)C` [Compound 529, 5-(4-Fluoro-1-isopropyl-2-methyl-1H-benzo[d]imidazol-6-yl)-N-((1-methylpiperidin-4-yl)methyl)-7H-pyrrolo[2,3-d]pyrimidin-2-a]: the EC50 is 9.3 nM.

The values are drawn from patent US20250129104A1, “7H-PYRROLO[2,3-D]PYRIMIDINES AND PREPARATION AND USES THEREOF” (BioSplice Therapeutics, Inc., priority 2021, published 2025).
